# Assay results taken from patent US20080096868A1, “1,4 Substituted Pyrazolopyrimidines as Kinase Inhibitors” (priority 2004, published 2008).
# Biological target: T1, EphB4 kinase (Homo sapiens, UniProt P54760)
# T1 construct: made in house; host or cells: Sf9 or Sf21 insect cells (baculovirus)
# T1 sequence (P54760 566-987): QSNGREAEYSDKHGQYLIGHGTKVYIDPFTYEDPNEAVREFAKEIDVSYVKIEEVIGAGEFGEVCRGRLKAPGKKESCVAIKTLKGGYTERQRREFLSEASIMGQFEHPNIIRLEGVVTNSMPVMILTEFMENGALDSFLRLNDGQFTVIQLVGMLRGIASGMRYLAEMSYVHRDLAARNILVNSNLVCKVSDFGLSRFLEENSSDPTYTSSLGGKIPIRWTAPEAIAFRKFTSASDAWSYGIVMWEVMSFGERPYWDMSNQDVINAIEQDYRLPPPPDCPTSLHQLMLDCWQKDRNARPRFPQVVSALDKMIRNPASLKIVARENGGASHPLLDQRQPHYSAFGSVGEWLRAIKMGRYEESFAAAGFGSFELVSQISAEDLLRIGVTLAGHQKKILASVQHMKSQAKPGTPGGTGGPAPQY
# Assay: Inhibition of EphB4 kinase activity (33P incorporation into poly(Glu,Tyr), filter assay)
# Format: biochemical
# Conditions: purified GST-EphB4, 2.0-3.0 μM ATP, poly(Glu,Tyr) 4:1; read-out: IC50 (μmol/l), Inhibition of EphB4 kinase
# Text: Generation of Bac-to-Bac™ (Invitrogen Life Technologies, Basel, Switzerland) GST-fusion expression vectors: Entire cytoplasmatic coding regions of the EphB-class are amplified by PCR from cDNA libraries derived from human placenta or brain, respectively. Recombinant baculovirus are generated that express the amino acid region 566-987 of the human EphB4 receptor (SwissProt Database, Accession No. P54760). GST sequence is cloned into pFastBac1® vector (Invitrogen Life Technologies, Basel, Switzerland) and PCR amplified. cDNAs encoding EphB4-receptor domains, respectively are cloned in frame 3′prime to the GST sequence into this modified FastBac1 vector to generate pBac-to-Bac™ donor vectors. Single colonies arising from the transformation are inoculated to give overnight cultures for small scale plasmid preparation. […] By automated sequencing the inserts and approximately 50 bp of the flanking vector sequences are confirmed on both strands.
# Production of viruses: Viruses for each of the kinases are made according to the protocol supplied by GIBCO if not stated otherwise. In brief, transfer vectors containing the kinase domains are transfected into the DH10Bac cell line (GIBCO) and plated on selective agar plates. Colonies without insertion of the fusion sequence into the viral genome (carried by the bacteria) are blue. Single white colonies are picked and viral DNA (bac-mid) isolated from the bacteria by standard plasmid purification procedures. Sf9 cells or Sf21 cells are then transfected in 25 cm^2 flasks with the viral DNA using Cellfectin reagent according to the protocol. […]
# Protein kinase assays: The activities of protein kinases are assayed in the presence or absence of inhibitors, by measuring the incorporation of ^33P from [γ^33P]ATP into a polymer of glutamic acid and tyrosine (poly(Glu,Tyr)) as a substrate. […] Membranes are counted after drying at ambient temperature, mounting in Packard TopCount96-well frame, and addition of 10 μL/well of Microscint™ (Packard). […]
row,IC50 [µmol/L],Compound
1,0.16,"COc1ccc(-n2ncc3c(Nc4ccccc4C)ncnc32)cc1 [Example 21, [1-(4-Methoxy-phenyl)-1H-pyrazolo[3,4-d]pyrimidin-4-yl]-o-tolyl-amine]"
2,0.5,"COc1ccc(-n2ncc3c(Nc4cc(F)ccc4C)ncnc32)cc1 [Example 23, (5-Fluoro-2-methyl-phenyl)-[1-(4-methoxy-phenyl)-1H-pyrazolo[3,4-d]pyrimidin-4-yl]-amine]"
3,0.4,"Cc1cccc(C)c1Nc1nc(CCCN(C)C)nc2c1cnn2-c1ccccc1 [Example 27, [6-(3-Dimethylamino-propyl)-1-phenyl-1H-pyrazolo[3,4-d]pyrimidin-4-yl]-(2,6-dimethyl-phenyl)-amine]"
